Where two headings read alike, the source gives them in different places. Marks after values point to notes of the source that are not given here.
Legend:
Phytophthora infestans [1] = assay: microbe, parasite or virus in culture; type: cell-based; conditions: for Eff. % (inhibition of fungal growth): 8 days incubation
Pythium ultimum = Pythium ultimum in vitro cell test; type: cell-based; conditions: 4 days incubation
Procedure: Pythium ultimum In Vitro Cell Test
• Solvent: DMSO • Culture medium: 14.6 g anhydrous D-glucose (VWR), 7.1 g Mycological Peptone (Oxoid), 1.4 g granulated Yeast Extract (Merck), QSP liter • Inoculum: mycelial suspension
Fungicides were solubilized in DMSO and the solution used to prepare the required range of concentrations. The final concentration of DMSO used in the assay was ≤1%.
Inoculum was prepared from a pre-culture of P. ultimum grown in liquid medium by homogenization using a blender. The concentration of ground mycelium in the inoculum was estimated and adjusted to the desired optical density (OD).
Fungicides were evaluated for their ability to inhibit mycelium growth in liquid culture assay. The compounds were added in the desired concentrations to culture medium containing the mycelial suspension. After 4 days of incubation, the fungicidal efficacy of compounds was determined by spectrometric measurement of mycelium growth. Inhibition of fungal growth was determined by comparing the absorbance values in wells containing the fungicides with the absorbance in control wells without fungicides.

Plasmopara viticola = assay: Plasmopara test (grapevines)/preventive; type: in vivo; conditions: spray, evaluated 6 days after inoculation
Procedure: Plasmopara Test (Grapevines)/Preventive
• Solvent: 24.5 parts by weight of acetone • 24.5 parts by weight of dimethylacetamide • Emulsifier: 1 part by weight of alkylaryl polyglycol ether
To produce a suitable preparation of active compound, 1 part by weight of active compound is mixed with the stated amounts of solvent and emulsifier, and the concentrate is diluted with water to the desired concentration.
To test for preventive activity, young plants are sprayed with the preparation of active compound at the stated rate of application. After the spray coating has dried on, the plants are inoculated with an aqueous spore suspension of Plasmopara viticola and then remain for 1 day in an incubation cabinet at approximately 20° C. and a relative atmospheric humidity of 100%. The plant is subsequently placed for 4 days in a greenhouse at approximately 21° C. and a relative atmospheric humidity of approximately 90%. The plants are then misted and placed for 1 day in an incubation cabinet.
The test is evaluated 6 days after the inoculation. 0% means an efficacy which corresponds to that of the untreated control, while an efficacy of 100% means that no disease is observed.

[2] = pH 2.7
physchem = conditions: pH 2.7
Phytophthora infestans [3] = type: in vivo; conditions: tomatoes, spray, evaluated 3 days after inoculation
[4] = 0.25 μg/mL of active ingredient
[5] = Phytophthora infestans, 192 h, read-out: Eff. % (inhibition of fungal growth)

| SMILES | Log P [2] | chromatographic logP (physchem) | Eff. % (inhibition of fungal growth) (Pythium ultimum; 20 μg/mL of active ingredient) [%] | Eff. % (inhibition of fungal growth) (Phytophthora infestans [1]; 20 μg/mL of active ingredient) [%] | other results |
| --- | --- | --- | --- | --- | --- |
| C#CCOc1cccc(F)c1C1CC(c2csc(C3CCN(C(=O)C(Br)C(=O)OC(C)C)CC3)n2)=NO1 (centres unmarked) [Example I-38] | 3.30^[a] |  |  |  | Eff. % (inhibition of fungal growth) (Phytophthora infestans [1]; [4]): 100%; Eff. % (inhibition of fungal growth) (Pythium ultimum; of active ingredient): 99%; Eff. % (preventive efficacy) (Plasmopara viticola; 1 ppm of active ingredient): 93% |
| CS(=O)(=O)Oc1ccccc1C1CC(c2csc(C3CCN(C(=O)C(C(=O)OCc4ccccc4)n4nc(C(F)F)cc4C(F)F)CC3)n2)=NO1 (centres unmarked) [Example I-60, benzyl 2-[3,5-bis(difluoromethyl)-1H-pyrazol-1-yl]-3-{4-[4-(5-{2-[(methylsulfonyl)oxy]phenyl}-4,5-dihydro-1,2-oxazol-3-yl)-1,3-thiazol-2-yl]piperidin-1-yl}-3-oxopropanoate] |  | 3.77 |  |  | inhibition at 0.25 µg/mL (Phytophthora infestans [1]; [5]): 100% |
| COCCOC(=O)C(C(=O)N1CCC(c2nc(C3=NOC(c4ccccc4OS(C)(=O)=O)C3)cs2)CC1)n1nc(C(F)F)cc1C(F)F (centres unmarked) [Example I-05] | 3.14^[a] |  | 87 |  | Eff. % (inhibition of fungal growth) (Phytophthora infestans [1]; [4]): 100%; Eff. % (preventive efficacy) (Phytophthora infestans [3]; 100 ppm of active ingredient): 96%; Eff. % (preventive efficacy) (Plasmopara viticola; 100 ppm of active ingredient): 95% |
| CS(=O)(=O)Oc1ccccc1C1CC(C(=O)CCl)=NO1 (centres unmarked) [2-[3-(chloroacetyl)-4,5-dihydro-1,2-oxazol-5-yl]phenyl methanesulfonate] |  | 2.37 |  |  |  |
| C#CCOc1cccc(F)c1C1CC(c2csc(C3CCN(C(=O)CC(=O)OCC)CC3)n2)=NO1 (centres unmarked) [Example I-42] | 2.58^[a] |  | 100 | 100 | Eff. % (preventive efficacy) (Phytophthora infestans [3]; 1 ppm of active ingredient): 94%; Eff. % (preventive efficacy) (Plasmopara viticola; 1 ppm of active ingredient): 99% |
| C#CCOc1cccc(F)c1C1CC(c2csc(C3CCN(C(=O)C(C(=O)OCCOC)n4nc(C(F)F)cc4C(F)F)CC3)n2)=NO1 (centres unmarked) [Example I-02] | 3.37^[a] |  |  |  | Eff. % (inhibition of fungal growth) (Phytophthora infestans [1]; [4]): 100%; Eff. % (inhibition of fungal growth) (Pythium ultimum; of active ingredient): 96%; Eff. % (preventive efficacy) (Phytophthora infestans [3]; 100 ppm of active ingredient): 96%; Eff. % (preventive efficacy) (Plasmopara viticola; 100 ppm of active ingredient): 100% |
| N#CC1CCN(C(=O)C(C(=O)OCc2ccccc2)n2nc(C(F)F)cc2C(F)F)CC1 (centres unmarked) [IV-04, benzyl 2-[3,5-bis(difluoromethyl)-1H-pyrazol-1-yl]-3-(4-cyanopiperidin-1-yl)-3-oxopropanoate] |  | 2.94 |  |  |  |
| CCOC(=O)C(C(=O)N1CCC(c2nc(C3=NOC(c4c(F)cccc4OS(C)(=O)=O)C3)cs2)CC1)n1nc(C(F)F)cc1C(F)F (centres unmarked) [Example I-03] | 3.29^[a] |  | 96 | 99 | Eff. % (preventive efficacy) (Phytophthora infestans [3]; 100 ppm of active ingredient): 95%; Eff. % (preventive efficacy) (Plasmopara viticola; 100 ppm of active ingredient): 98% |
| C#CCOc1ccccc1C1CC(c2csc(C3CCN(C(=O)OC(C)(C)C)CC3)n2)=NO1 (centres unmarked) [tert-butyl 4-(4-{5-[2-(prop-2-yn-1-yloxy)phenyl]-4,5-dihydro-1,2-oxazol-3-yl}-1,3-thiazol-2-yl)piperidine-1-carboxylate] |  | 4.07 |  |  |  |
| CC(C)OC(=O)C(C(=O)N1CCC(c2nc(C3=NOC(c4ccccc4OS(C)(=O)=O)C3)cs2)CC1)n1nc(C(F)F)cc1C(F)F (centres unmarked) [Example I-01] | 3.53^[a] |  | 95 | 100 | Eff. % (preventive efficacy) (Phytophthora infestans [3]; 100 ppm of active ingredient): 70% |
| C#CCOc1cccc(Cl)c1C1CC(c2csc(C3CCN(C(=O)CC(=O)OCC)CC3)n2)=NO1 (centres unmarked) [Example I-51] | 2.81^[a] |  | 95 | 100 | Eff. % (preventive efficacy) (Plasmopara viticola; 1 ppm of active ingredient): 94% |
| NC(=S)C1CCN(C(=O)C(C(=O)OCc2ccccc2)n2nc(C(F)F)cc2C(F)F)CC1 (centres unmarked) [II-01, benzyl 2-[3,5-bis(difluoromethyl)-1H-pyrazol-1-yl]-3-(4-carbamothioyl-piperidin-1-yl)-3-oxopropanoate] |  | 2.65 |  |  |  |
| C#CCOc1ccccc1C1CC(c2csc(C3CCN(C(=O)C(Br)C(=O)OCC)CC3)n2)=NO1 (centres unmarked) [Example I-30, ethyl 2-bromo-3-oxo-3-[4-(4-{5-[2-(prop-2-yn-1-yloxy)phenyl]-4,5-dihydro-1,2-oxazol-3-yl}-1,3-thiazol-2-yl)piperidin-1-yl]propanoate] |  | 3.18 |  |  |  |
| C#CCOc1cccc(Cl)c1C1CC(c2csc(C3CCN(C(=O)C(C(=O)OCC)n4nc(C(F)F)cc4C(F)F)CC3)n2)=NO1 (centres unmarked) [Example I-16] | 3.82^[a] |  | 94 | 100 | Eff. % (preventive efficacy) (Phytophthora infestans [3]; 100 ppm of active ingredient): 98%; Eff. % (preventive efficacy) (Plasmopara viticola; 100 ppm of active ingredient): 95% |
| N#CC1CCN(C(=O)C(Br)C(=O)OCc2ccccc2)CC1 (centres unmarked) [IV-03, benzyl 2-bromo-3-(4-cyanopiperidin-1-yl)-3-oxopropanoate] |  | 2.24 |  |  |  |
| C#CCOc1ccccc1C1CC(c2csc(C3CCN(C(=O)C(C(=O)OCC)n4nc(C(F)F)cc4C(F)F)CC3)n2)=NO1 (centres unmarked) [Example I-15, ethyl 2-[3,5-bis(difluoromethyl)-1H-pyrazol-1-yl]-3-oxo-3-[4-(4-{5-[2-(prop-2-yn-1-yloxy)phenyl]-4,5-dihydro-1,2-oxazol-3-yl}-1,3-thiazol-2-yl)piperidin-1-yl]propanoate] |  | 3.69 |  |  |  |
| C#CCOc1ccccc1C1CC(c2csc(C3CCNCC3)n2)=NO1 (centres unmarked) [4-(4-{5-[2-(prop-2-yn-1-yloxy)phenyl]-4,5-dihydro-1,2-oxazol-3-yl}-1,3-thiazol-2-yl)piperidinium chloride] |  | 1.26 |  |  |  |
| CCOC(=O)C(C(=O)N1CCC(c2nc(C3=NOC(c4c(Cl)cccc4OS(C)(=O)=O)C3)cs2)CC1)n1nc(C(F)F)cc1C(F)F (centres unmarked) [Example I-08] | 3.50^[a] |  | 87 | 99 | Eff. % (preventive efficacy) (Phytophthora infestans [3]; 100 ppm of active ingredient): 95%; Eff. % (preventive efficacy) (Plasmopara viticola; 100 ppm of active ingredient): 98% |
| C#CCOc1ccccc1C1CC(c2csc(C3CCN(C(=O)CC(=O)OCC)CC3)n2)=NO1 (centres unmarked) [Example I-41, ethyl 3-oxo-3-[4-(4-{5-[2-(prop-2-yn-1-yloxy)phenyl]-4,5-dihydro-1,2-oxazol-3-yl}-1,3-thiazol-2-yl)piperidin-1-yl]propanoate] |  | 2.7 |  |  | inhibition at 20 µg/mL (Phytophthora infestans [1]; [5]): 100%; inhibition at 20 µg/mL (Pythium ultimum; Globisporangium ultimum, 96 h, 20 μg/mL of active ingredient, read-out: Eff. % (inhibition of fungal growth)): 99%; Eff. % (preventive efficacy) (Phytophthora infestans [3]; 1 ppm of active ingredient): 94%; Eff. % (preventive efficacy) (Plasmopara viticola; 1 ppm of active ingredient): 91% |
| N#CC1CCN(C(=O)CC(=O)OCc2ccccc2)CC1 [IV-02, benzyl 3-(4-cyanopiperidin-1-yl)-3-oxopropanoate] |  | 1.85 |  |  |  |
| C#CCOc1cccc(F)c1C1CC(c2csc(C3CCN(C(=O)CC(=O)OC(C)C)CC3)n2)=NO1 (centres unmarked) [Example I-44] | 2.85^[a] |  | 99 | 100 | Eff. % (preventive efficacy) (Plasmopara viticola; 1 ppm of active ingredient): 82% |
